Structures are written as SMILES.

The subject of the first assay is normal mice (C57BL/6j mice). As to the kind of experiment: Oral glucose tolerance test after single administration of test compound in normal mice. Format: in vivo. The following applies: 30 mg/kg oral in 10% Gelucire44/14; 2 g/kg glucose oral 30 minutes later; versus solvent alone; FIG. 1. As to the method: FIG. 1 is a view showing the results of an oral sugar tolerance test that was carried out after completion of a single administration of the compound of Example 68, in which the 30 mg/kg compound was orally administered to normal mice, and 30 minutes later, 2 g/kg glucose was orally administered thereto, followed by confirmation of a hypoglycemic action of the compound.
The test compound (Example 68) (30 mg/kg) suspended in 10% (v/v) Gelucire44/14 (GATTEFOSSE) was orally administered to normal mice (C57BL/6j mice, CLEA Japan, Inc.). Thirty minutes later, 2 g/kg glucose was orally administered to the mice. The blood glucose level was measured using an automatic blood glucose level measurement apparatus (Medisafe, TERUMO), before administration of the test compound, 25 minutes after administration of the test compound, and 15, 30, 60, and 120 minutes after administration of glucose. Thus, the action of the test compound to lower blood glucose level was evaluated.
Turning to `CC(=O)N1CCC2(C1)CN(C(=O)Nc1ncc(F)s1)c1ccc(Cl)cc12` (stereo not shown) [Example 68, 1′-acetyl-5-chloro-N-(5-fluorothiazol-2-yl)spiro[indoline-3,3′-pyrrolidine]-1-carboxamide], the “blood glucose level (action to lower blood glucose level)” value is listed as “lower than that of the mice orally administered with the solvent alone”.

A further assay has as its target T1, GST-GK derived from human liver GK (Homo sapiens, UniProt P35557).
T1 construct: made in house; host or cells: Escherichia coli DH5α
T1 sequence (P35557 1-466 isoform P35557-2): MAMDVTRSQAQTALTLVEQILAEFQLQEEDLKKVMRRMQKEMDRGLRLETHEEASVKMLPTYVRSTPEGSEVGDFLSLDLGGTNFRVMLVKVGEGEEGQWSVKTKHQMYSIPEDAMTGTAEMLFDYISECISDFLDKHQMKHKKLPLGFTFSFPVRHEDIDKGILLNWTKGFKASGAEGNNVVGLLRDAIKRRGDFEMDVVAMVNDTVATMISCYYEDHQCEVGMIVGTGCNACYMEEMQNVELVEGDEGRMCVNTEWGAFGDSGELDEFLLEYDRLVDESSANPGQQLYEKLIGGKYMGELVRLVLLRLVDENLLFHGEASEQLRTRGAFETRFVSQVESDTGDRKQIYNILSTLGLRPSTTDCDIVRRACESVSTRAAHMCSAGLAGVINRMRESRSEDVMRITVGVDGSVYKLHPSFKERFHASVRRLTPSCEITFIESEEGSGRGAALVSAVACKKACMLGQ
As to the kind of experiment: In vitro GK activity measurement test (G6PDH-coupled, OD340). It counts as biochemical. The settings on record: test compound 1 μmol/L; glucose 2.5 mmol/L; 25° C.; OD340 slope with compound / without compound; read-out: GK activation rate (%). The gist of the method:
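GST-fused human liver glucokinase (variant 2, E. coli-expressed) at 0.1 μg/mL final, in pH 7.1 Hepes with 2.5 mmol/L glucose, 5 mmol/L ATP, NADP and G6PDH coupling, at 25° C. OD340 slope monitored over 10 min. Activation rate is slope with test compound (1 μmol/L) divided by slope without.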
`COC(=O)N1CC[C@@]2(C1)CN(C(=O)Nc1ncc(SCC(=O)O)s1)c1ccc(Br)cc12` [Example 336, (S)-2-((2-(5-bromo-1′-(methoxycarbonyl)spiro[indoline-3,3′-pyrrolidin]-1-ylcarboxamido)thiazol-5-yl)thio)acetic acid]: the activity at 1 µM stood at 451%.
Same read-out and setting: the result for `COC(=O)N1CC[C@@]2(C1)CN(C(=O)Nc1nc3ccc(OC)nc3s1)c1ccc(S(=O)(=O)N(CCN(C)C)Cc3ccccc3)cc12` [Example 347, (S)-methyl 5-(N-benzyl-N-(2-(dimethylamino)ethyl)sulfamoyl)-1-((5-methoxythiazolo[5,4-b]pyridin-2-yl)carbamoyl)spiro[indoline-3,3′-pyrrolidine]-1′-carboxylate] reads 611%.
On the same count and under the same terms, the result for `NCC(=O)N1CC[C@@]2(C1)CN(C(=O)Nc1ncc(Cl)s1)c1ccc(Cl)cc12` [Example 353, (R)-1′-(2-aminoacetyl)-5-chloro-N-(5-chlorothiazol-2-yl)spiro[indoline-3,3′-pyrrolidine]-1-carboxamide] reads 486%.
In the case of `CC(=O)N1CC(CNC(=O)N2CCC3(C2)CN(C(=O)Nc2ncc(Cl)s2)c2ccc(Cl)cc23)C1` (stereo not shown) [Example 476, N1′-((1-acetylazetidin-3-yl)methyl)-5-chloro-N1-(5-chlorothiazol-2-yl)spiro[indoline-3,3′-pyrrolidine]-1,1′-dicarboxamide], the activity at 1 µM was 445%.
As to `CNC(=O)CCNC(=O)N1CCC2(C1)CN(C(=O)Nc1ncc(Cl)s1)c1ccc(Cl)cc12` (stereo not shown) [Example 465, 5-Chloro-N1-(5-chlorothiazol-2-yl)-N1′-(3-(methylamino)-3-oxopropyl)spiro[indoline-3,3′-pyrrolidine]-1,1′-dicarboxamide], the activity at 1 µM came to 474%.
On to `COC(=O)N1CCC2(C1)CN(C(=O)Nc1ncc(SCCCNC(=O)C3CC3)s1)c1ccc(Cl)cc12` (stereo not shown) [Example 454, methyl 5-chloro-1-((5-((3-(cyclopropanecarboxamido)propyl)thio)thiazol-2-yl)carbamoyl)spiro[indoline-3,3′-pyrrolidine]-1′-carboxylate], for which the activity at 1 µM worked out at 575%.

Source of the values: patent US8921576B2, “Spiroindoline compound, and medicinal agent comprising same” (Kowa Company, Ltd., priority 2011, dated 2014).
